In the NIST ThermoML archive (doi:10.1021/acs.jced.5b00122):
Numbers after ± are expanded uncertainties.

Details: 298.15 K; 101.33 kPa; Liquid; Vibrating tube method

mass density | SMILES
960.892 ± 1.9 kg/m3 | COCCO [2-methoxyethan-1-ol]
907.878 ± 1.8 kg/m3 | CCCOCCO [2-propoxyethanol]
787.577 ± 1.6 kg/m3 | CCO [ethanol]
787.52 ± 1.6 kg/m3 | CO [methanol]
801.08 ± 1.6 kg/m3 | CCCO [propan-1-ol]
781.214 ± 1.6 kg/m3 | CC(C)O [propan-2-ol]
